Reference: paper PMC4338435, “Design and Application of a Novel High-throughput Screening Technique for 1-Deoxynojirimycin” (Scientific Reports, 2015)

Columns and labels:
LacS [1] = biological target: T1, LacS (Saccharolobus solfataricus, UniProt P22498); experiment: inhibition of oNPG hydrolysis, A420; format: biochemical; parameters: recombinant full-length LacS; purified for in vitro assay; lacS also integrated in E. coli BW25113 (BWLacS); settings: buffer Z, oNPG substrate, 37°C, 10 min
T1 sequence (P22498 1-489): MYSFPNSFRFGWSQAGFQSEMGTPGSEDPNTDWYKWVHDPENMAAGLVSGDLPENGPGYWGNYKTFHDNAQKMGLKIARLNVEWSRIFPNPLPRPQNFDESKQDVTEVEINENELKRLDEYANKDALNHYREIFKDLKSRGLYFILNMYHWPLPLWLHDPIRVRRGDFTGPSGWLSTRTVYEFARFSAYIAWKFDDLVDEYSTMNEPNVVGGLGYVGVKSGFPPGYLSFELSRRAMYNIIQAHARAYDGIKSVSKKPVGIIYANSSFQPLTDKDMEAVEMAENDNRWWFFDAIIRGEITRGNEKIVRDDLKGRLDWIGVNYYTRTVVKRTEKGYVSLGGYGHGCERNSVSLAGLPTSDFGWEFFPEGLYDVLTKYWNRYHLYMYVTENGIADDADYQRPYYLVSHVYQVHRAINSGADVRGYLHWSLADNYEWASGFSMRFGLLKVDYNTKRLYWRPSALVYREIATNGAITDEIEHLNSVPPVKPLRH

LacS [2] = biological target: T1, LacS; experiment: blue-white colony assay on LB agar, E. coli BWLacS; format: cell-based; parameters: lacS also integrated in E. coli BW25113 (BWLacS); settings: 40 μg/mL X-GAL, 1 mM L-arabinose

With `OC[C@H]1NC[C@H](O)[C@@H](O)[C@@H]1O` [1-DNJ] as the compound, how does the LacS inhibition rate (LacS [1]) read?
Its LacS inhibition rate is 1-DNJ was found able to inhibit LacS on its o-nitrophenyl-β-D-galactopyranoside (oNPG) hydrolysis activity.

How did the LacS inhibition rate (LacS [1]; unstable MJ tested as reaction mixture of purified GutB1 with ADM and NAD+, not isolated) turn out when `OC[C@H]1NC(O)[C@@H](O)[C@@H](O)[C@@H]1O` (stereo partly drawn) [MJ] was run?
The LacS inhibition rate was “MJ was also found to inhibit the activity of LacS (Figure S3)”.

For `OC[C@H]1O[C@@H](Oc2c[nH]c3ccc(Br)c(Cl)c23)[C@H](O)[C@@H](O)[C@H]1O` [X-GAL], which “blue-white colony assay on LB agar, E. coli BWLacS” value (LacS [2]) is on record?
The value was “inhibitory effect of 1-DNJ on the LacS activity toward 5-bromo-4-chloro-3-indolyl β-D-galactopyranoside (X-GAL)”.
